From paper PMC3961306, “Comparison of the Cancer Gene Targeting and Biochemical Selectivities of All Targeted Kinase Inhibitors Approved for Clinical Use” (PLoS ONE, 2014)
Like-named read-outs stand apart in the source and are kept apart here.

What was measured:
[1] = test system: forty-four human cancer cell lines; experiment: Cell proliferation assay (ATPlite, 72 hours) in the 44 cell line Oncolines panel; format: cell-based; conditions: Homo sapiens
[2] = target: panel of more than 300 wild-type and mutant kinases (313 kinase panel) (Homo sapiens, UniProt Q9UM73, R1275Q); experiment: Kinase profiling in a biochemical assay panel (mobility shift assays and ELISA), %-inhibition at 1 μM; selectivity entropy; conditions: kinase ALK(R1275Q); 1 μM compound
[3] = target: panel of more than 300 wild-type and mutant kinases (313 kinase panel) (Homo sapiens, UniProt P07947, T348I); experiment: as above; conditions: kinase YES(T348I); compound at 1 μM
[4] = target: panel of more than 300 wild-type and mutant kinases (313 kinase panel) (Homo sapiens, UniProt P15056, V600E); experiment: as above; conditions: kinase BRAF(V600E); 1 μM compound
[5] = target: panel of more than 300 wild-type and mutant kinases (313 kinase panel) (Homo sapiens, UniProt P11362, V561M); experiment: as above; conditions: kinase FGFR1(V561M); compound at 1 μM
[6] = target: panel of more than 300 wild-type and mutant kinases (313 kinase panel) (Homo sapiens, UniProt P00519, E255K); experiment: as above; conditions: kinase ABL(E255K); 1 μM compound
[7] = target: panel of more than 300 wild-type and mutant kinases (313 kinase panel) (Homo sapiens, UniProt P35968); experiment: as above; conditions: kinase KDR; compound at 1 μM
[8] = target: panel of more than 300 wild-type and mutant kinases (313 kinase panel) (Homo sapiens, UniProt P15056); experiment: as above; conditions: kinase BRAF; 1 μM compound
[9] = target: panel of more than 300 wild-type and mutant kinases (313 kinase panel) (Homo sapiens, UniProt P09619); experiment: as above; conditions: kinase PDGFRβ; 1 μM
[10] = target: panel of more than 300 wild-type and mutant kinases (313 kinase panel) (Homo sapiens, UniProt P00519); experiment: as above; conditions: kinase ABL; 1 μM compound
[11] = target: panel of more than 300 wild-type and mutant kinases (313 kinase panel) (Homo sapiens, UniProt P00533, L861Q); experiment: as above; conditions: kinase EGFR(L861Q); compound at 1 μM
[12] = target: panel of more than 300 wild-type and mutant kinases (313 kinase panel) (Homo sapiens, UniProt P00533, L858R); experiment: as above; conditions: kinase EGFR(L858R); compound at 1 μM
[13] = target: panel of more than 300 wild-type and mutant kinases (313 kinase panel) (Homo sapiens, UniProt P00533, T790M); experiment: as above; conditions: kinase EGFR(T790M); compound at 1 μM
[14] = target: panel of more than 300 wild-type and mutant kinases (313 kinase panel) (Homo sapiens, UniProt P00533); experiment: as above; conditions: kinase EGFR; compound at 1 μM
[15] = 4-4 cell, read-out: cell panel IC50, J82
[16] = 4-4 cell, read-out: cell panel IC50, PA-1
[17] = 4-4 cell, read-out: cell panel IC50, SJCRH30
[18] = 4-4 cell, read-out: cell panel IC50, SR
[19] = 769-P, read-out: cell panel IC50, 769-P
[20] = 786-0, read-out: cell panel IC50, 786-0
[21] = A 172, read-out: cell panel IC50, A-172
[22] = A204, read-out: cell panel IC50, A-204
[23] = A498, read-out: cell panel IC50, A-498
[24] = A549, read-out: cell panel IC50, A-549
[25] = A-375, read-out: cell panel IC50, A375
[26] = A-427, read-out: cell panel IC50, A-427
[27] = ACHN, read-out: cell panel IC50, ACHN
[28] = AN3-CA, read-out: cell panel IC50, AN3 CA
[29] = AU565, read-out: cell panel IC50, AU-565
[30] = BT-20, read-out: cell panel IC50, BT-20
[31] = BT-549, read-out: cell panel IC50, BT-549
[32] = BXPC-3, read-out: cell panel IC50, BxPC-3
[33] = C-33-A, read-out: cell panel IC50, C-33 A
[34] = CAL-27, read-out: cell panel IC50, CAL 27
[35] = CCRF-CEM, read-out: cell panel IC50, CCRF-CEM
[36] = DLD-1, read-out: cell panel IC50, DLD-1
[37] = FaDu, read-out: cell panel IC50, FaDu
[38] = HCT-15, read-out: cell panel IC50, HCT-15
[39] = HCT-116, read-out: cell panel IC50, HCT-116
[40] = Hs-578T, read-out: cell panel IC50, Hs 578T
[41] = Jurkat E6.1, read-out: cell panel IC50, Jurkat E6.1
[42] = K562, read-out: cell panel IC50, K-562
[43] = LS174T, read-out: cell panel IC50, LS 174T
[44] = LoVo, read-out: cell panel IC50, LoVo
[45] = MG-63, read-out: cell panel IC50, MG-63
[46] = MOLT-4, read-out: cell panel IC50, MOLT-4
[47] = MeWo, read-out: cell panel IC50, MeWo
[48] = NCI-H82, read-out: cell panel IC50, NCI-H82
[49] = NCI-H460, read-out: cell panel IC50, NCI-H460
[50] = OVCAR-3, read-out: cell panel IC50, OVCAR-3
[51] = RPMI-7951, read-out: cell panel IC50, RPMI-7951
[52] = SHP77, read-out: cell panel IC50, SHP-77
[53] = SK-N-AS, read-out: cell panel IC50, SK-N-AS
[54] = SW48, read-out: cell panel IC50, SW48
[55] = SW480, read-out: cell panel IC50, SW480
[56] = SW-620, read-out: cell panel IC50, SW620
[57] = U2OS, read-out: cell panel IC50, U-2 OS
[58] = U-87 MG, 72 h, read-out: IC50 in cell proliferation assay (table S5 cellpanel data)

O=S(=O)(c1cccc2cnccc12)N1CCCNCC1 [fasudil]
IC50 [1, 15]: > 31.6 µM | IC50 [1, 16]: > 31.6 µM | IC50 [1, 17]: > 31.6 µM | IC50 [1, 18]: 14.6 µM | IC50 [1, 19]: > 31.6 µM | IC50 [1, 20]: > 31.6 µM | IC50 [1, 21]: > 31.6 µM | IC50 [1, 22]: > 31.6 µM | IC50 [1, 23]: > 31.6 µM | IC50 [1, 24]: > 31.6 µM | IC50 [1, 25]: 19.7 µM | IC50 [1, 26]: > 31.6 µM | IC50 [1, 27]: > 31.6 µM | IC50 [1, 28]: 29.8 µM | IC50 [1, 29]: > 31.6 µM | IC50 [1, 30]: > 31.6 µM | IC50 [1, 31]: > 31.6 µM | IC50 [1, 32]: > 31.6 µM | IC50 [1, 33]: > 31.6 µM | IC50 [1, 34]: > 31.6 µM | IC50 [1, 35]: > 31.6 µM | IC50 [1, 36]: > 31.6 µM | IC50 [1, 37]: > 31.6 µM | IC50 [1, 38]: > 31.6 µM | IC50 [1, 39]: > 31.6 µM | IC50 [1, 40]: > 31.6 µM | IC50 [1, 41]: > 31.6 µM | IC50 [1, 42]: > 31.6 µM | IC50 [1, 43]: > 31.6 µM | IC50 [1, 44]: > 31.6 µM | IC50 [1, 45]: > 31.6 µM | IC50 [1, 46]: > 31.6 µM | IC50 [1, 47]: > 31.6 µM | IC50 [1, 48]: > 31.6 µM | IC50 [1, 49]: > 31.6 µM | IC50 [1, 50]: > 31.6 µM | IC50 [1, 51]: > 31.6 µM | IC50 [1, 52]: > 31.6 µM | IC50 [1, 53]: > 31.6 µM | IC50 [1, 54]: > 31.6 µM | IC50 [1, 55]: > 31.6 µM | IC50 [1, 56]: > 31.6 µM | IC50 [1, 57]: > 31.6 µM | IC50 [1, 58]: > 31.6 µM | %-inhibition, ALK(R1275Q) [2]: -1.83% | %-inhibition of YES(T348I) [3]: 6% | %-inhibition, BRAF(V600E) [4]: 3.36% | %-inhibition of FGFR1(V561M) [5]: 2.35% | %-inhibition, ABL(E255K) [6]: -3% | %-inhibition of KDR [7]: 1.78% | %-inhibition, BRAF [8]: -3.28% | %-inhibition of PDGFRβ [9]: 12% | %-inhibition, ABL [10]: -8%

CS(=O)(=O)CCNCc1ccc(-c2ccc3ncnc(Nc4ccc(OCc5cccc(F)c5)c(Cl)c4)c3c2)o1 [lapatinib]
IC50 [1, 15]: 15.5 µM | IC50 [1, 16]: 12.4 µM | IC50 [1, 17]: 12.3 µM | IC50 [1, 18]: 7.6 µM | IC50 [1, 19]: 8.8 µM | IC50 [1, 20]: 11.5 µM | IC50 [1, 21]: 13.8 µM | IC50 [1, 22]: 10.6 µM | IC50 [1, 23]: 9.97 µM | IC50 [1, 24]: 15.6 µM | IC50 [1, 25]: 14.9 µM | IC50 [1, 26]: 12.7 µM | IC50 [1, 27]: 5.79 µM | IC50 [1, 28]: 12 µM | IC50 [1, 29]: 0.137 µM | IC50 [1, 30]: 17.3 µM | IC50 [1, 31]: 16.7 µM | IC50 [1, 32]: 6.59 µM | IC50 [1, 33]: 0.446 µM | IC50 [1, 34]: 2.56 µM | IC50 [1, 35]: 10.1 µM | IC50 [1, 36]: 12.9 µM | IC50 [1, 37]: 0.902 µM | IC50 [1, 38]: 8.92 µM | IC50 [1, 39]: 13.8 µM | IC50 [1, 40]: 14.6 µM | IC50 [1, 41]: 7.05 µM | IC50 [1, 42]: 14.2 µM | IC50 [1, 43]: 7.07 µM | IC50 [1, 44]: 9.08 µM | IC50 [1, 45]: 12.3 µM | IC50 [1, 46]: 8.79 µM | IC50 [1, 47]: 14.5 µM | IC50 [1, 48]: 11.7 µM | IC50 [1, 49]: 16.2 µM | IC50 [1, 50]: > 31.6 µM | IC50 [1, 51]: 13.7 µM | IC50 [1, 52]: 14.1 µM | IC50 [1, 53]: 12.7 µM | IC50 [1, 54]: 22.8 µM | IC50 [1, 55]: 13.2 µM | IC50 [1, 56]: 21.1 µM | IC50 [1, 57]: 12.9 µM | IC50 [1, 58]: 10.5 µM | %-inhibition, ABL(E255K) [6]: -4.67% | %-inhibition of PDGFRβ [9]: 2.84% | %-inhibition, ABL [10]: 17%

Cc1cn(-c2cc(NC(=O)c3ccc(C)c(Nc4nccc(-c5cccnc5)n4)c3)cc(C(F)(F)F)c2)cn1 [nilotinib]
IC50 [1, 15]: 6.33 µM | IC50 [1, 16]: 13.8 µM | IC50 [1, 17]: > 31.6 µM | IC50 [1, 18]: 4.31 µM | IC50 [1, 19]: > 31.6 µM | IC50 [1, 20]: 1.11 µM | IC50 [1, 21]: 9.78 µM | IC50 [1, 22]: 0.584 µM | IC50 [1, 23]: 5.04 µM | IC50 [1, 24]: 7.29 µM | IC50 [1, 25]: 9.58 µM | IC50 [1, 26]: 6.73 µM | IC50 [1, 27]: 12.3 µM | IC50 [1, 28]: 26.1 µM | IC50 [1, 29]: 4.63 µM | IC50 [1, 30]: > 31.6 µM | IC50 [1, 31]: 3.33 µM | IC50 [1, 32]: 10.1 µM | IC50 [1, 33]: > 31.6 µM | IC50 [1, 34]: 9.84 µM | IC50 [1, 35]: 6.74 µM | IC50 [1, 36]: 7.3 µM | IC50 [1, 37]: > 31.6 µM | IC50 [1, 38]: 6.17 µM | IC50 [1, 39]: 5.75 µM | IC50 [1, 40]: 7.43 µM | IC50 [1, 41]: 11.8 µM | IC50 [1, 42]: 0.026 µM | IC50 [1, 43]: 6.11 µM | IC50 [1, 44]: 7.46 µM | IC50 [1, 45]: 8.78 µM | IC50 [1, 46]: 4.36 µM | IC50 [1, 47]: > 31.6 µM | IC50 [1, 48]: 31.2 µM | IC50 [1, 49]: 6.49 µM | IC50 [1, 50]: > 31.6 µM | IC50 [1, 51]: 7.78 µM | IC50 [1, 52]: > 31.6 µM | IC50 [1, 53]: 24 µM | IC50 [1, 54]: > 31.6 µM | IC50 [1, 55]: 18 µM | IC50 [1, 56]: 5.3 µM | IC50 [1, 57]: 5.38 µM | IC50 [1, 58]: > 31.6 µM | %-inhibition of EGFR(L861Q) [11]: 11% | %-inhibition of EGFR(L858R) [12]: 30% | %-inhibition of KDR [7]: 22% | %-inhibition of EGFR(T790M) [13]: 7.54% | %-inhibition of EGFR [14]: 17%
